Data: PubChem BioAssay (NCI)
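Cells were grown in 96-well plates and exposed to each compound for 48 hours at five concentrations; endpoints were interpolated linearly between bracketing concentrations, or set to the highest concentration if not reached. TGI: concentration producing complete growth inhibition.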

How the values were obtained:
Experiment in all cases: growth of human tumour cells (NCI), 48 h
COLO 205 colon = test system: COLO 205 colon
NCI-H522 lung = test system: NCI-H522 lung
MDA-MB-435 = test system: MDA-MB-435
UACC-257 melanoma = test system: UACC-257 melanoma
HOP-62 NSCLC = test system: HOP-62 NSCLC
SN12C renal = test system: SN12C renal
CAKI-1 renal = test system: CAKI-1 renal
HCT-116 colon = test system: HCT-116 colon
SK-MEL-2 melanoma = test system: SK-MEL-2 melanoma
NCI-H23 lung = test system: NCI-H23 lung
NCI-H226 lung = test system: NCI-H226 lung
MDA-N = test system: MDA-N
TK-10 renal = test system: TK-10 renal
SK-MEL-28 melanoma = test system: SK-MEL-28 melanoma
OVCAR-3 ovarian = test system: OVCAR-3 ovarian
ACHN renal = test system: ACHN renal
T-47D breast = test system: T-47D breast
OVCAR-4 ovarian = test system: OVCAR-4 ovarian
HCC-2998 colon = test system: HCC-2998 colon
KM12 colon = test system: KM12 colon
LOX IMVI melanoma = test system: LOX IMVI melanoma
PC-3 prostate = test system: PC-3 prostate
SK-OV-3 ovarian = test system: SK-OV-3 ovarian
HS 578T breast = test system: HS 578T breast
K-562 leukemia = test system: K-562 leukemia
MOLT-4 leukemia = test system: MOLT-4 leukemia
SF-268 CNS = test system: SF-268 CNS
EKVX NSCLC = test system: EKVX NSCLC
MALME-3M melanoma = test system: MALME-3M melanoma
786-0 renal = test system: 786-0 renal
HT29 colon = test system: HT29 colon
IGROV1 ovarian = test system: IGROV1 ovarian
MCF7 breast = test system: MCF7 breast
NCI-H460 lung = test system: NCI-H460 lung
MDA-MB-231 breast = test system: MDA-MB-231 breast
RXF 393 renal = test system: RXF 393 renal
SF-539 CNS = test system: SF-539 CNS
A498 renal = test system: A498 renal
SK-MEL-5 melanoma = test system: SK-MEL-5 melanoma
NCI/ADR-RES ovarian = test system: NCI/ADR-RES ovarian
HCT-15 colon = test system: HCT-15 colon
OVCAR-5 ovarian = test system: OVCAR-5 ovarian
HL-60(TB) leukemia = test system: HL-60(TB) leukemia
SNB-19 CNS = test system: SNB-19 CNS
OVCAR-8 ovarian = test system: OVCAR-8 ovarian
SW-620 colon = test system: SW-620 colon
UACC-62 melanoma = test system: UACC-62 melanoma
A549 NSCLC = test system: A549 NSCLC
RPMI-8226 leukemia = test system: RPMI-8226 leukemia
SNB-75 CNS = test system: SNB-75 CNS
SF-295 CNS = test system: SF-295 CNS
M14 melanoma = test system: M14 melanoma
CCRF-CEM leukemia = test system: CCRF-CEM leukemia
UO-31 renal = test system: UO-31 renal
DU-145 prostate = test system: DU-145 prostate
U251 CNS = test system: U251 CNS
HOP-92 NSCLC = test system: HOP-92 NSCLC
SR leukemia = test system: SR leukemia

OC(c1nc2ccccc2s1)(C(F)(F)F)C(F)(F)F
TGI (COLO 205 colon): > 100 µM | TGI (NCI-H522 lung): > 100 µM | TGI (MDA-MB-435): > 100 µM | TGI (UACC-257 melanoma): > 100 µM | TGI (HOP-62 NSCLC): > 100 µM | TGI (SN12C renal): > 100 µM | TGI (CAKI-1 renal): > 100 µM | TGI (HCT-116 colon): > 100 µM | TGI (SK-MEL-2 melanoma): > 100 µM | TGI (NCI-H23 lung): > 100 µM | TGI (NCI-H226 lung): > 100 µM | TGI (MDA-N): > 100 µM | TGI (TK-10 renal): > 100 µM | TGI (SK-MEL-28 melanoma): > 100 µM | TGI (OVCAR-3 ovarian): > 100 µM | TGI (ACHN renal): > 100 µM | TGI (T-47D breast): > 100 µM | TGI (OVCAR-4 ovarian): > 100 µM | TGI (HCC-2998 colon): > 100 µM | TGI (KM12 colon): > 100 µM | TGI (LOX IMVI melanoma): > 100 µM | TGI (PC-3 prostate): > 100 µM | TGI (SK-OV-3 ovarian): > 100 µM | TGI (HS 578T breast): > 100 µM | TGI (K-562 leukemia): > 100 µM | TGI (MOLT-4 leukemia): > 100 µM | TGI (SF-268 CNS): > 100 µM | TGI (EKVX NSCLC): > 100 µM | TGI (MALME-3M melanoma): > 100 µM | TGI (786-0 renal): > 100 µM | TGI (HT29 colon): > 100 µM | TGI (IGROV1 ovarian): > 100 µM | TGI (MCF7 breast): > 100 µM | TGI (NCI-H460 lung): > 100 µM | TGI (MDA-MB-231 breast): > 100 µM | TGI (RXF 393 renal): > 100 µM | TGI (SF-539 CNS): > 100 µM | TGI (A498 renal): > 100 µM | TGI (SK-MEL-5 melanoma): > 100 µM | TGI (NCI/ADR-RES ovarian): > 100 µM | TGI (HCT-15 colon): > 100 µM | TGI (OVCAR-5 ovarian): > 100 µM | TGI (HL-60(TB) leukemia): > 100 µM | TGI (SNB-19 CNS): > 100 µM | TGI (OVCAR-8 ovarian): > 100 µM | TGI (SW-620 colon): > 100 µM | TGI (UACC-62 melanoma): > 100 µM | TGI (A549 NSCLC): > 100 µM | TGI (RPMI-8226 leukemia): > 100 µM | TGI (SNB-75 CNS): > 100 µM | TGI (SF-295 CNS): > 100 µM | TGI (M14 melanoma): > 100 µM | TGI (CCRF-CEM leukemia): > 100 µM | TGI (UO-31 renal): > 100 µM | TGI (DU-145 prostate): > 100 µM | TGI (U251 CNS): > 100 µM

Cc1ccc([N+](=O)[O-])c2c(NCCNC(=O)Cn3ccnc3[N+](=O)[O-])ccnc12
TGI (COLO 205 colon): > 100 µM | TGI (NCI-H522 lung): 38 µM | TGI (MDA-MB-435): > 100 µM | TGI (UACC-257 melanoma): 87.7 µM | TGI (HOP-62 NSCLC): 48.7 µM | TGI (SN12C renal): > 100 µM | TGI (CAKI-1 renal): > 100 µM | TGI (HCT-116 colon): > 100 µM | TGI (SK-MEL-2 melanoma): > 100 µM | TGI (NCI-H23 lung): > 100 µM | TGI (NCI-H226 lung): 88 µM | TGI (MDA-N): > 100 µM | TGI (TK-10 renal): > 100 µM | TGI (SK-MEL-28 melanoma): > 100 µM | TGI (OVCAR-3 ovarian): 52.6 µM | TGI (ACHN renal): > 100 µM | TGI (T-47D breast): > 100 µM | TGI (HOP-92 NSCLC): 78.1 µM | TGI (OVCAR-4 ovarian): > 100 µM | TGI (HCC-2998 colon): > 100 µM | TGI (KM12 colon): > 100 µM | TGI (LOX IMVI melanoma): > 100 µM | TGI (PC-3 prostate): > 100 µM | TGI (SK-OV-3 ovarian): 59.7 µM | TGI (HS 578T breast): > 100 µM | TGI (K-562 leukemia): > 100 µM | TGI (MOLT-4 leukemia): > 100 µM | TGI (SF-268 CNS): > 100 µM | TGI (EKVX NSCLC): > 100 µM | TGI (MALME-3M melanoma): 89.1 µM | TGI (786-0 renal): > 100 µM | TGI (HT29 colon): > 100 µM | TGI (IGROV1 ovarian): 86.6 µM | TGI (MCF7 breast): 44.2 µM | TGI (NCI-H460 lung): > 100 µM | TGI (SR leukemia): > 100 µM | TGI (MDA-MB-231 breast): > 100 µM | TGI (RXF 393 renal): 16.5 µM | TGI (SF-539 CNS): > 100 µM | TGI (A498 renal): > 100 µM | TGI (SK-MEL-5 melanoma): > 100 µM | TGI (NCI/ADR-RES ovarian): > 100 µM | TGI (HCT-15 colon): > 100 µM | TGI (OVCAR-5 ovarian): > 100 µM | TGI (HL-60(TB) leukemia): > 100 µM | TGI (SNB-19 CNS): > 100 µM | TGI (OVCAR-8 ovarian): > 100 µM | TGI (SW-620 colon): > 100 µM | TGI (UACC-62 melanoma): > 100 µM | TGI (A549 NSCLC): > 100 µM | TGI (RPMI-8226 leukemia): > 100 µM | TGI (SNB-75 CNS): > 100 µM | TGI (SF-295 CNS): 43.3 µM | TGI (M14 melanoma): > 100 µM | TGI (CCRF-CEM leukemia): > 100 µM | TGI (UO-31 renal): > 100 µM | TGI (DU-145 prostate): > 100 µM | TGI (U251 CNS): > 100 µM
